Results from DBAASP.
Values after ≈ are worked out from the molar mass of the structure shown. One block for each compound: values may come before it.

Experiments:
Assay in all cases: ≥ marks a high value that may be exact or a test limit, other limits are often not marked, values filed in µg/mL are converted to µM
[1] = tested on: Candida viswanathii NBRC 10321
[2] = tested on: Staphylococcus epidermidis NBRC 12993
[3] = tested on: Escherichia coli NBRC 3972
[4] = tested on: Aspergillus oryzae NBRC 100959
[5] = tested on: Micrococcus luteus NBRC 3333
[6] = tested on: Escherichia coli
[7] = tested on: Bacillus subtilis KCTC 1021
[8] = tested on: Salmonella enterica subsp. enterica serovar Typhimurium ATCC 14028
[9] = tested on: Klebsiella pneumoniae ATCC 10031
[10] = tested on: Serratia marcescens
[11] = tested on: Pseudomonas aeruginosa ATCC 9027
[12] = tested on: Micrococcus luteus ATCC 4698
[13] = tested on: Shigella dysenteriae ATCC 9752
[14] = tested on: Staphylococcus aureus NBRC 12732
[15] = tested on: Saccharomyces cerevisiae NBRC 10217
[16] = tested on: Escherichia coli NBRC 14237
[17] = tested on: Staphylococcus haemolyticus 527
[18] = tested on: Staphylococcus aureus ST88
[19] = tested on: Escherichia coli K12 MG1655
[20] = tested on: Bacillus subtilis 168 HT
[21] = tested on: Pseudomonas aeruginosa ATCC 27853
[22] = tested on: Enterococcus faecalis NCTC 12697
[23] = tested on: Staphylococcus aureus NCTC 10788
[24] = tested on: Candida albicans NCPF 1467
[25] = tested on: Escherichia coli NCTC 10418
[26] = tested on: Staphylococcus aureus ATCC 12493
[27] = tested on: Streptococcus parauberis PH0710
[28] = tested on: Vibrio campbellii KCCM 40684
[29] = tested on: Vibrio anguillarum TR14001NF
[30] = tested on: Vibrio alginolyticus KCCM 2928
[31] = tested on: Streptococcus iniae FP5228
[32] = tested on: Vibrio ordalii KCCM 41669
[33] = tested on: Vibrio harveyi ATCC 14126
[34] = tested on: Streptococcus parauberis KSP 28
[35] = tested on: Edwardsiella piscicida FSW 910410
[36] = tested on: Staphylococcus aureus ATCC 6538P
[37] = tested on: Staphylococcus epidermidis
[38] = tested on: Pseudomonas aeruginosa PAO1
[39] = tested on: Staphylococcus aureus ATCC BAA-41
[40] = tested on: Escherichia coli BL21

Structure (SMILES): CC[C@H](C)[C@H](NC(=O)[C@H](CC(C)C)NC(=O)[C@@H](N)CCCN=C(N)N)C(=O)N[C@@H](CCCCN)C(=O)N[C@@H](CCCN=C(N)N)C(=O)N[C@@H](Cc1ccc(O)cc1)C(=O)N[C@@H](CC(C)C)C(=O)N[C@@H](CCCN=C(N)N)C(=O)N[C@@H](CCCN=C(N)N)C(=O)N[C@@H](CCSC)C(=O)N[C@@H](Cc1c[nH]c2ccccc12)C(=O)O [RLIKRYLRRMW]
MIC [1]: ≥ 62.9 µM | MIC [2]: ≥ 126 µM | MIC [3]: ≥ 503 µM | MIC [4]: ≥ 126 µM | MIC [5]: ≥ 62.9 µM

Structure (SMILES): CC[C@H](C)[C@H](NC(=O)[C@@H](N)[C@@H](C)O)C(=O)N[C@@H](CC(N)=O)C(=O)N[C@@H](CCCCN)C(=O)N[C@@H](CCCCN)C(=O)N[C@@H](Cc1ccccc1)C(=O)N[C@@H](CCCN=C(N)N)C(=O)N[C@@H](Cc1c[nH]c2ccccc12)C(=O)N[C@@H](Cc1cnc[nH]1)C(=O)NCC(=O)N[C@@H](CCCCN)C(=O)N[C@@H](CCCN=C(N)N)C(=O)N[C@@H](CCCCN)C(=O)N[C@@H](Cc1c[nH]c2ccccc12)C(=O)N[C@@H](Cc1c[nH]c2ccccc12)C(=O)N[C@@H](CC(C)C)C(=O)N[C@@H](CCCN=C(N)N)C(=O)N[C@@H](Cc1ccccc1)C(=O)N[C@H](C(=O)N[C@@H](CCCCN)C(=O)N[C@@H](CCC(N)=O)C(=O)O)C(C)C [TINKKFRWHGKRKWWLRFVKQ]
MIC [14]: 3.12 µM (≈ 8.89 µg/mL) | MIC [15]: 6.25 µM (≈ 17.8 µg/mL) | MIC [16]: 3.12 µM (≈ 8.89 µg/mL)

Structure (SMILES): CC[C@H](C)[C@H](NC(=O)[C@H](CCCCN)NC(=O)[C@@H]1CCCN1C(=O)[C@H](CC(C)C)NC(=O)[C@@H](N)Cc1ccccc1)C(=O)N[C@@H](CC(C)C)C(=O)N[C@@H](CCCCN)C(=O)N[C@H](C(=O)N[C@@H](C)C(=O)N[C@@H](C)C(=O)N[C@@H](CCCCN)C(N)=O)C(C)C [FLPKILKVAAK]
MIC [21]: > 512 µM | MIC [22]: ≥ 512 µM | MIC [23]: ≥ 256 µM | MIC [24]: ≥ 256 µM | MIC [25]: ≥ 512 µM | MIC [26]: ≥ 512 µM

Structure (SMILES): CC[C@H](C)[C@H](NC(=O)[C@H](CCCCN)NC(=O)[C@H](CCCCN)NC(=O)[C@H](Cc1ccccc1)NC(=O)[C@H](CC(C)C)NC(=O)[C@H](CCCCN)NC(=O)[C@H](Cc1c[nH]c2ccccc12)NC(=O)[C@@H](N)CCCCN)C(=O)NCC(=O)N[C@@H](C)C(=O)N[C@H](C(=O)N[C@@H](CC(C)C)C(=O)N[C@@H](CCCCN)C(=O)N[C@@H](CCCCN)C(=O)N[C@@H](CC(C)C)C(=O)O)C(C)C [KWKLFKKIGAVLKKL]
MIC [36]: 5.66 µM (≈ 10.2 µg/mL) | MIC [37]: 0.354 µM (≈ 0.637 µg/mL) | MIC [38]: 2.83 µM (≈ 5.09 µg/mL) | MIC [39]: 8 µM (≈ 14.4 µg/mL) | MIC [40]: 2 µM (≈ 3.6 µg/mL)

The next lines start with results.

MIC [6]: 10.3 µM (≈ 25 µg/mL) | MIC [7]: 10.3 µM (≈ 25 µg/mL) | MIC [8]: 51.5 µM (≈ 125 µg/mL) | MIC [9]: 10.3 µM (≈ 25 µg/mL) | MIC [10]: ≥ 82.3 µM | MIC [11]: 51.5 µM (≈ 125 µg/mL) | MIC [12]: 1.03 µM (≈ 2.5 µg/mL) | MIC [13]: 20.6 µM (≈ 50 µg/mL)
Structure (SMILES): CC[C@H](C)[C@H](NC(=O)CN)C(=O)N[C@@H](CC(C)C)C(=O)N[C@@H](CC(=O)O)C(=O)N[C@H](C(=O)N[C@@H](CC(C)C)C(=O)N[C@@H](CCCCN)C(=O)N[C@@H](CCC(N)=O)C(=O)N[C@@H](Cc1ccccc1)C(=O)N[C@@H](C)C(=O)N[C@@H](CCCCN)C(=O)NCC(=O)N[C@H](C(=O)NCC(=O)N[C@@H](CCCCN)C(=O)N[C@@H](Cc1c[nH]c2ccccc12)C(=O)N[C@@H](CC(C)C)C(=O)N[C@H](C(=O)N[C@@H](CCCCN)C(=O)NCC(=O)N[C@@H](C)C(=O)N[C@@H](C)C(=O)N[C@@H](CCC(N)=O)C(=O)O)C(C)C)C(C)C)[C@@H](C)O [GILDTLKQFAKGVGKWLVKGAAQ]

MIC [18]: ≥ 100 µM | MIC [19]: 14.8 µM (≈ 32.2 µg/mL) | MIC [20]: 14.8 µM (≈ 32.2 µg/mL)
Structure (SMILES): CC[C@H](C)[C@H](N)C(=O)NCC(=O)N[C@@H](CCCN=C(N)N)C(=O)N[C@@H](Cc1cnc[nH]1)C(=O)N[C@@H](Cc1ccccc1)C(=O)N[C@@H](CCCCN)C(=O)N[C@@H](CCCN=C(N)N)C(=O)N[C@@H](CCCN=C(N)N)C(=O)N[C@@H](CC(N)=O)C(=O)N[C@@H](CO)C(=O)N[C@H](C(=O)N[C@@H](Cc1c[nH]c2ccccc12)C(=O)NCC(=O)N[C@H](C(=O)N[C@@H](CS)C(=O)N[C@@H](Cc1c[nH]c2ccccc12)C(=O)N[C@@H](Cc1ccccc1)C(=O)O)[C@@H](C)CC)[C@@H](C)CC [IGRHFKRRNSIWGICWF]
MIC [17]: 14.8 µM (≈ 32.2 µg/mL)

MIC [27]: ≥ 103 µM | MIC [28]: ≥ 51.3 µM | MIC [29]: ≥ 290 µM | MIC [30]: ≥ 205 µM | MIC [31]: ≥ 51.3 µM | MIC [32]: ≥ 205 µM | MIC [33]: ≥ 51.3 µM | MIC [34]: ≥ 290 µM | MIC [35]: ≥ 290 µM
Structure (SMILES): CC[C@H](C)[C@H](NC(=O)[C@H](CCCCN)NC(=O)[C@@H](NC(=O)[C@@H](N)Cc1ccccc1)[C@@H](C)O)C(=O)N[C@@H](Cc1ccc(O)cc1)C(=O)NCC(=O)N[C@@H](CO)C(=O)N[C@@H](CCCN=C(N)N)C(=O)N[C@@H](CC(C)C)C(=O)N[C@@H](CCC(N)=O)C(=O)N[C@@H](CCCCN)C(=O)N[C@H](C(=O)N[C@@H](CC(C)C)C(=O)NCC(=O)N[C@@H](CC(N)=O)C(=O)O)C(C)C [FTKIYGSRLQKVLGN]
